Source: patent EP0021685A1
Converted amounts (≈) assume the structure as drawn.

Assays:
[1] = test system: Trichophyton mentagrophytes; experiment: Disc-diffusion antifungal test; conditions: for zone of inhibition at 10000 µg/mL: read-out: Zone diameters (mm)
[2] = test system: Candida albicans; experiment: Disc-diffusion antifungal test; conditions: 6-mm pads dipped in solutions of test compound
[3] = test system: Histoplasma capsulatum; experiment: microbe, parasite or virus in culture; format: cell-based
[4] = test system: Blastomyces dermatitidis; experiment: Standard agar-dilution test; format: cell-based
[5] = physchem; conditions: 66% aqueous dimethylformamide, pH 7.12
[6] = test system: Neurospora crassa; experiment: Disc-diffusion antifungal test; conditions: read-out: Zone diameters (mm)

| Compound | MIC (mcg/disc) ([1]; disc-diffusion, 6-mm pads dipped in solutions of test compound) | MIC (mcg/disc) [2] | MIC [3] | MIC [4] | pKa [5] | zone of inhibition at 10000 µg/mL [1] | zone of inhibition at 10000 µg/mL [6] |
| --- | --- | --- | --- | --- | --- | --- | --- |
| CCCCC/C=C\C/C=C\CCCCCCCC(=O)N[C@H]1C[C@@H](O)[C@@H](OC)NC(=O)[C@@H]2[C@@H](O)[C@@H](C)CN2C(=O)[C@H]([C@@H](C)O)NC(=O)[C@H]([C@H](O)[C@@H](O)c2ccc(O)cc2)NC(=O)[C@@H]2C[C@@H](O)CN2C(=O)[C@H]([C@@H](C)O)NC1=O | 0.078 mcg/disc | 1.25 mcg/disc | 100 µg/mL (≈ 93.1 µM) | 100 µg/mL (≈ 93.1 µM) | ~12.9 |  |  |
| CCCCC/C=C\C/C=C\CCCCCCCC(=O)N[C@H]1C[C@@H](O)[C@@H](OCCCCCC)NC(=O)[C@@H]2[C@@H](O)[C@@H](C)CN2C(=O)[C@H]([C@@H](C)O)NC(=O)[C@H]([C@H](O)[C@@H](O)c2ccc(O)cc2)NC(=O)[C@@H]2C[C@@H](O)CN2C(=O)[C@H]([C@@H](C)O)NC1=O [R = n-hexyl] |  |  |  |  |  | 35 mm | 25 mm |
| CCCCC/C=C\C/C=C\CCCCCCCC(=O)N[C@H]1C[C@@H](O)[C@@H](OCCC)NC(=O)[C@@H]2[C@@H](O)[C@@H](C)CN2C(=O)[C@H]([C@@H](C)O)NC(=O)[C@H]([C@H](O)[C@@H](O)c2ccc(O)cc2)NC(=O)[C@@H]2C[C@@H](O)CN2C(=O)[C@H]([C@@H](C)O)NC1=O [R = n-propyl] |  |  |  |  |  | 35 mm | 20 mm |
